In patent US8927533B2, “Thio derivatives bearing lactams as potent HDAC inhibitors and their uses as medicaments” (SIGMA-TAU Industrie Farmaceutiche Riunite S.p.A., priority 2011, dated 2015):
Where two headings read alike, the source gives them in different places.

What was measured:
HDAC7 = target: T1, HDAC7 (Homo sapiens, UniProt Q8WUI4); experiment: HDAC enzymatic assay, HDAC7; format: biochemical
T1 sequence (Q8WUI4 1-952): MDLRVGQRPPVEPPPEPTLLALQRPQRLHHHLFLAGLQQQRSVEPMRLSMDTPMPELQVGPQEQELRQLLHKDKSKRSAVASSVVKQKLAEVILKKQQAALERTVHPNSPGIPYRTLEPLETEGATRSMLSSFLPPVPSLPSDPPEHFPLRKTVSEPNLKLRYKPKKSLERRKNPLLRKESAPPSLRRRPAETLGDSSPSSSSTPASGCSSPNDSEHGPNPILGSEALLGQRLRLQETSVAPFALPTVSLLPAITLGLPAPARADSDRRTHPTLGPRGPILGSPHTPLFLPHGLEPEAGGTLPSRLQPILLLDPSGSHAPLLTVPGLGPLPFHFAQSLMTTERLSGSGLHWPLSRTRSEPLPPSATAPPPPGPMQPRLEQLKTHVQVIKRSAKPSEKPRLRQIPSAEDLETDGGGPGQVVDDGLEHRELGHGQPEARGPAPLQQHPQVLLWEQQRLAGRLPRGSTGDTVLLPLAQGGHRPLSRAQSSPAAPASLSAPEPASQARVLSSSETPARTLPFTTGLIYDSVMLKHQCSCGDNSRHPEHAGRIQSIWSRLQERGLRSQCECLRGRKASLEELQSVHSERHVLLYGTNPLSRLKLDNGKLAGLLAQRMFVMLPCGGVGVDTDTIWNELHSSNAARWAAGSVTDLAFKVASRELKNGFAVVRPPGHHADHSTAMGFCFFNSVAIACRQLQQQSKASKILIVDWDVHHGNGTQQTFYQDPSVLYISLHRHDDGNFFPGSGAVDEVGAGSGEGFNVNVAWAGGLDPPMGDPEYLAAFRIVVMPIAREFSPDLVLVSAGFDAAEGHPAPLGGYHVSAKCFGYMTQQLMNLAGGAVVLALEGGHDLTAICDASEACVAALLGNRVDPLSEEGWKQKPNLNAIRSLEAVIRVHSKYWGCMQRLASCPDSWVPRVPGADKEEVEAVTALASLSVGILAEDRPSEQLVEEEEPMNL
Procedure: (§1) Each compound was dissolved in DMSO, and progressively diluted solutions were used for testing. […] Upon its deacetylation, the fluorophore was released given rise to fluorescence emission which was detected by a fluorimeter, and the IC50 values of the compounds were determined by analyzing dose-response inhibition curves.

HDAC6 = target: T2, HDAC6 (Homo sapiens, UniProt Q9UBN7); experiment: HDAC enzymatic assay, HDAC6; format: biochemical
T2 sequence (Q9UBN7 1-1215): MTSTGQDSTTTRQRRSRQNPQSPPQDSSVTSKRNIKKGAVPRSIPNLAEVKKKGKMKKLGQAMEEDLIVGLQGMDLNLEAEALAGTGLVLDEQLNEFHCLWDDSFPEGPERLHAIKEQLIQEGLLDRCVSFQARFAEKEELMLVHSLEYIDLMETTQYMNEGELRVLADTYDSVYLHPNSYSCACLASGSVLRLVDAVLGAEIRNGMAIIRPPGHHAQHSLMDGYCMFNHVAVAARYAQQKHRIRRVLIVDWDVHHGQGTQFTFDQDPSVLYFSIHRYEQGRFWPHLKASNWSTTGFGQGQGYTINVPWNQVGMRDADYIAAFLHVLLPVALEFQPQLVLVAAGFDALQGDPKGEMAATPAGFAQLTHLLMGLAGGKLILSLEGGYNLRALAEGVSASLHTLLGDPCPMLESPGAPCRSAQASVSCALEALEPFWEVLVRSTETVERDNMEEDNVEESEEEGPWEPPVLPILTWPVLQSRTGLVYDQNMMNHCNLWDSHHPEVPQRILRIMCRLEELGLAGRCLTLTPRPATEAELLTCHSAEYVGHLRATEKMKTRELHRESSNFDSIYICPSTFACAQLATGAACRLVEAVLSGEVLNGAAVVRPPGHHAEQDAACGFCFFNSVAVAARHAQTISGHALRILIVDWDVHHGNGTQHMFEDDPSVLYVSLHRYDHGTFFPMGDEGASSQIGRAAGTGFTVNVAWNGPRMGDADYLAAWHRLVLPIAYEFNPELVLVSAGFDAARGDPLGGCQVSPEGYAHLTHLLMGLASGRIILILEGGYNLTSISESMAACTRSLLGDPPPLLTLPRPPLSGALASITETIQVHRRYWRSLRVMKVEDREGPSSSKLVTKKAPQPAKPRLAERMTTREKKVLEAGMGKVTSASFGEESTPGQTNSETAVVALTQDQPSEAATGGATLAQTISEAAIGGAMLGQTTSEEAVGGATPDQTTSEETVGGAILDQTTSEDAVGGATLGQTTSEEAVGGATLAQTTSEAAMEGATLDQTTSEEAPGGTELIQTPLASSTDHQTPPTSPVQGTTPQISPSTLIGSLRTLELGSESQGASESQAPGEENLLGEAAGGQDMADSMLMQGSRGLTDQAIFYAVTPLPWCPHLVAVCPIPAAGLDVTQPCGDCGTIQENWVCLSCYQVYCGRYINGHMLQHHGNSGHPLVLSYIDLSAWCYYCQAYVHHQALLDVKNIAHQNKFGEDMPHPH
Procedure: as §1

HDAC1 = HDAC1 (Homo sapiens, UniProt Q13547); experiment: HDAC enzymatic assay, HDAC1; format: biochemical
HDAC1, sequence (Q13547 whole entry): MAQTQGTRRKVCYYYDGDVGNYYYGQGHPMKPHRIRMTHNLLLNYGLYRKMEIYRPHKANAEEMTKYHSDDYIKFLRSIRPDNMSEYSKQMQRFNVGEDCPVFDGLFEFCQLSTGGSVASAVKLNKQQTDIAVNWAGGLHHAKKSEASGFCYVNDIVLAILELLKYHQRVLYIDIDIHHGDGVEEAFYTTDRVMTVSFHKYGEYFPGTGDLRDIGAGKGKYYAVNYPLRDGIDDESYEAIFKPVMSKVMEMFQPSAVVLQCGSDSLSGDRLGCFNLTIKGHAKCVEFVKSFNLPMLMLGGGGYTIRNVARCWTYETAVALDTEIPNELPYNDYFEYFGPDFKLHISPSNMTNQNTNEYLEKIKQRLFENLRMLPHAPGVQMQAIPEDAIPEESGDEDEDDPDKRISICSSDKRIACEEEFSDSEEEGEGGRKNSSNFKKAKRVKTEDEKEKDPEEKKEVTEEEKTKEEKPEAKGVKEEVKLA
Procedure: as §1

[1] = system: HCT116 colon cancer cells; experiment: Cytotoxicity, sulphorodamine B, HCT116; settings: Homo sapiens, HCT-116, read-out: HCT116 cell line IC50 (μM)
Procedure: They were allowed to attach and recover for at least 24 h.
The plates were incubated for 24 h at 37° C., after which they were washed 3 times by removal of the supernatant and addition of PBS. The plates were then incubated for further 48 h at 37° C. 200 μl PBS and 50 μl of cold 80% TCA were added and the plates were incubated on ice for at least 1 h. TCA was removed and the plates were washed 3 times by immersion in distilled-water. They were then dried on paper at 40° C. for 5 min. 200 μl of 0.4% sulphorodamine B in 1% acetic acid were added. The plates were incubated at room temperature for further 30 min. Sulphorodamine B was removed, and the plates were washed 3 times by immersion in 1% acetic acid and were dried on paper and at 40° C. for 5 min. Then 200 μl Tris 10 mM were added. The plates were kept under magnetic stirring for 20 min. Cell survival was determined by means of optical density by a Multiskan spectrofluorimeter at 540 nm. The amount of cells killed was calculated as the percentage decrease in sulphorodamine B binding compared to control cultures.

[2] = fluorogenic tetrapeptide RHKKAc substrate 10 μM, read-out: HDAC isoforms IC50 (nM), 7
[3] = fluorogenic tetrapeptide RHKKAc substrate 10 μM, read-out: HDAC isoforms IC50 (nM), 6
[4] = fluorogenic tetrapeptide RHKKAc substrate 10 μM, read-out: HDAC isoforms IC50 (nM), 1
[5] = Table 2, thio (SH) vs hydroxamate (CONHOH) MBG analogues, read-out: HDAC isoforms, 7 (IC50)
[6] = Table 2, thio (SH) vs hydroxamate (CONHOH) MBG analogues, read-out: HDAC isoforms, 6 (IC50)
[7] = Table 2, thio (SH) vs hydroxamate (CONHOH) MBG analogues, read-out: HDAC isoforms, 1 (IC50)

Structure (SMILES)	IC50 (HDAC7; [2])	IC50 (HDAC6; [3])	IC50 (HDAC1; [4])	IC50 (HDAC7; [5])	IC50 (HDAC6; [6])	IC50 (HDAC1; [7])	IC50 [1]
O=C1CCC[C@@H](C(=O)N[C@@H](CCCCCS)C(=O)NCc2cccc(OCc3ccccc3)c2)N1 [Example 25, (S)-6-Oxo-piperidine-2-carboxylic acid [(S)-1-(3-benzyloxy-benzylcarbamoyl)-6-mercapto-hexyl]-amide]	100 to 500 nM	50 to 100 nM	100 to 500 nM	–	–	–	–
O=C1NC[C@@H](c2ccccc2)[C@H]1C(=O)N[C@@H](CCCCCS)C(=O)Nc1ccccc1 [Example 29, (3R,4R)-2-Oxo-4-phenyl-pyrrolidine-3-carboxylic acid ((S)-6-mercapto-1-phenylcarbamoyl-hexyl)-amide]	100 to 500 nM	< 50 nM	50 to 100 nM	–	–	–	–
O=C1NCCC[C@@H]1C(=O)N[C@@H](CCCCCS)C(=O)Nc1ccccc1 [Example 36, (S)-2-Oxo-piperidine-3-carboxylic acid ((S)-6-mercapto-1-phenylcarbamoyl-hexyl)amide]	50 to 100 nM	< 50 nM	< 50 nM	–	–	–	–
O=C1CCC[C@@H](C(=O)N[C@@H](CCCCCS)C(=O)NCc2ccc(C(F)(F)F)cc2)N1 [Example 26, (S)-6-Oxo-piperidine-2-carboxylic acid [(S)-6-mercapto-1-(4-trifluoromethyl-benzylcarbamoyl)-hexyl]-amide]	100 to 500 nM	100 to 500 nM	100 to 500 nM	–	–	–	–
Cc1cccc(CCNC(=O)[C@H](CCCCCS)NC(=O)[C@@H]2CCCC(=O)N2)c1 [Example 34, (S)-6-Oxo-piperidine-2-carboxylic acid [(S)-6-mercapto-1-(2-m-tolyl-ethylcarbamoyl)hexyl]-amide]	100 to 500 nM	< 50 nM	50 to 100 nM	–	–	–	–
O=C1CCC[C@@H](C(=O)N[C@@H](CCCCCS)C(=O)N2CCc3ccccc3C2)N1 [Example 32, (S)-6-Oxo-piperidine-2-carboxylic acid [(S)-1-(3,4-dihydro-1H-isoquinoline-2-carbonyl)-6-mercapto-hexyl]-amide]	100 to 500 nM	100 to 500 nM	100 to 500 nM	–	–	–	–
O=C1NC[C@H](c2ccccc2)[C@H]1C(=O)N[C@@H](CCCCCS)C(=O)Nc1ccccc1 [Example 30, (3R,4S)-2-Oxo-4-phenyl-pyrrolidine-3-carboxylic acid ((S)-6-mercapto-1-phenylcarbamoyl-hexyl)-amide]	100 to 500 nM	100 to 500 nM	50 to 100 nM	–	–	–	–
O=C1NC[C@H](c2ccccc2)[C@@H]1C(=O)N[C@@H](CCCCCS)C(=O)Nc1ccccc1 [Example 28, (3S,4S)-2-Oxo-4-phenyl-pyrrolidine-3-carboxylic acid ((S)-6-mercapto-1-phenylcarbamoyl-hexyl)-amide]	100 to 500 nM	< 50 nM	< 50 nM	–	–	–	–
O=C1CCC[C@H](C(=O)N[C@@H](CCCCCS)C(=O)Nc2ccccc2)N1 [Example 37, (R)-6-Oxo-piperidine-2-carboxylic acid ((S)-6-mercapto-1-phenylcarbamoyl-hexyl)amide]	100 to 500 nM	< 50 nM	< 50 nM	–	–	–	–
CN1C(=O)CCC[C@H]1C(=O)N[C@@H](CCCCCS)C(=O)Nc1ccccc1 [Example 40, (S)-1-Methyl-6-oxo-piperidine-2-carboxylic acid ((S)-6-mercapto-1-phenylcarbamoyl-hexyl)-amide]	< 50 nM	< 50 nM	< 50 nM	–	–	–	–

The next lines start with results.

IC50 (HDAC7; [2])	IC50 (HDAC6; [3])	IC50 (HDAC1; [4])	IC50 (HDAC7; [5])	IC50 (HDAC6; [6])	IC50 (HDAC1; [7])	Structure (SMILES)	IC50 [1]
< 50 nM	< 50 nM	100 to 500 nM	–	–	–	O=C1CCC[C@@H](C(=O)N[C@@H](CCCCCS)C(=O)NC2CCCC2)N1 [Example 24, (S)-6-Oxo-piperidine-2-carboxylic acid ((S)-1-cyclopentylcarbamoyl-6-mercapto-hexyl)amide]	–
< 50 nM	< 50 nM	< 50 nM	–	–	–	Cc1ccc(NC(=O)[C@H](CCCCCS)NC(=O)[C@@H]2CCCC(=O)N2)cc1 [Example 39, (S)-6-Oxo-piperidine-2-carboxylic acid ((S)-6-mercapto-1-p-tolylcarbamoyl-hexyl)amide]	–
< 50 nM	< 50 nM	< 50 nM	–	–	–	Cc1cccc(NC(=O)[C@H](CCCCCS)NC(=O)[C@@H]2CCCC(=O)N2)c1 [Example 38, (S)-6-Oxo-piperidine-2-carboxylic acid ((S)-6-mercapto-1-m-tolylcarbamoyl-hexyl)amide]	–
< 50 nM	< 50 nM	< 50 nM	–	–	–	O=C1CCC[C@@H](C(=O)N[C@@H](CCCCCS)C(=O)Nc2ccccc2)N1 [Example 23, (S)-6-Oxo-piperidine-2-carboxylic acid ((S)-6-mercapto-1-phenylcarbamoyl-hexyl)amide]	–
< 50 nM	< 50 nM	< 50 nM	–	–	–	O=C1C[C@@H](C(=O)N[C@@H](CCCCCS)C(=O)Nc2ccccc2)N1 [Example 27, (S)-4-Oxo-azetidine-2-carboxylic acid ((S)-6-mercapto-1-phenylcarbamoyl-hexyl)amide]	–
< 50 nM	< 50 nM	< 50 nM	–	–	–	O=C1NCCC[C@H]1C(=O)N[C@@H](CCCCCS)C(=O)Nc1ccccc1 [Example 35, (R)-2-Oxo-piperidine-3-carboxylic acid ((S)-6-mercapto-1-phenylcarbamoyl-hexyl)amide]	–
< 50 nM	< 50 nM	< 50 nM	< 50 nM	< 50 nM	< 50 nM	O=C1NC[C@@H](c2ccccc2)[C@@H]1C(=O)N[C@@H](CCCCCS)C(=O)Nc1ccccc1 [Example 31, (3S,4R)-2-Oxo-4-phenyl-pyrrolidine-3-carboxylic acid ((S)-6-mercapto-1-phenylcarbamoyl-hexyl)-amide]	1 to 10 µM
< 50 nM	< 50 nM	< 50 nM	< 50 nM	< 50 nM	< 50 nM	O=C1CC[C@H](C(=O)N[C@@H](CCCCCS)C(=O)Nc2ccccc2)N1 [Example 33, (R)-5-Oxo-pyrrolidine-2-carboxylic acid ((S)-6-mercapto-1-phenylcarbamoyl-hexyl)amide]	1 to 10 µM
